Laboratory results reported in article PMC12389269, “Heteroaryl-Capped Hydroxamic Acid Derivatives with Varied Linkers: Synthesis and Anticancer Evaluation with Various Apoptosis Analyses in Breast Cancer Cells, Including Docking, Simulation, DFT, and ADMET Studies” (Pharmaceuticals, 2025).
≈ marks a conversion by molar mass, not a printed value. Like-named read-outs stand apart in the source and are kept apart here.

What was measured:
[1] = tested on: MCF-7 (Human Breast Cancer Cell Line); test: SRB antiproliferative assay, MCF-7; format: cell-based
Method: (§1) Following an extensive review of the literature, we selected human breast cancer (MCF-7, MDA-MB-231) and lung cancer (A549) cell lines to evaluate the anticancer potential of the synthesized compounds, and some compounds with good anti-proliferation activity were again tested to evaluate their cytotoxic potential on A-549, MCF-7, and MDA-MB-231. The same were also tested on one non-cancerous/normal (HEK-293) cell line. All the cell lines for the required screening were developed in a suitable medium comprising 10% FBS and 2mM L-glutamine. Cancerous and non-cancerous/normal cell lines were selected for the cell proliferation and cytotoxicity assay and maintained with 5% CO2 at 37 °C in a CO2 incubator with 100% relative humidity for one complete day before the addition of experimental drugs.
(§2) Antiproliferative activity through an SRB assay was performed for all the synthesized compounds on A-549 and MCF-7 cell lines. Around 5000 cells/well were quarantined into a 96-well microtiter plate in 100 μL. The synthesized compounds were solubilized in DMSO and diluted to different concentrations before use. The final-drug-concentration aliquots were poured into microtiter wells, and the plates were incubated for 48 h in regular conditions. After adding the final drug concentration, the cells were allowed to set in place and incubated for 60 min. A total of 50 µL of SRB solution (0.4% w/v) in 1% CH3COOH was poured into each well. The plates were then incubated for 20 min at RT. During subsequent staining, the unbounded dye was removed, and the plate reader recorded the eluted bound stain at 540 nm with a 690 nm reference wavelength. The assay was performed precisely using the appropriate reagents and reaction situation, as per the reported procedure. ADR was selected as the reference drug.

[2] = tested on: A-549 (Human Lung Cancer Cell Line); test: SRB antiproliferative assay, A-549; format: cell-based
Method: as §1, §2

HDAC1 = target: T1, HDAC1 (Homo sapiens, UniProt Q13547); test: HDAC inhibition assay (color de lys ELISA kit), HDAC1; format: biochemical; settings: HeLa nuclear extract as source of HDAC activity
T1 construct: The HeLa nuclear extract was used as a source of HDAC activity; host or cells: HeLa (nuclear extract / cells)
T1 sequence (Q13547 whole entry): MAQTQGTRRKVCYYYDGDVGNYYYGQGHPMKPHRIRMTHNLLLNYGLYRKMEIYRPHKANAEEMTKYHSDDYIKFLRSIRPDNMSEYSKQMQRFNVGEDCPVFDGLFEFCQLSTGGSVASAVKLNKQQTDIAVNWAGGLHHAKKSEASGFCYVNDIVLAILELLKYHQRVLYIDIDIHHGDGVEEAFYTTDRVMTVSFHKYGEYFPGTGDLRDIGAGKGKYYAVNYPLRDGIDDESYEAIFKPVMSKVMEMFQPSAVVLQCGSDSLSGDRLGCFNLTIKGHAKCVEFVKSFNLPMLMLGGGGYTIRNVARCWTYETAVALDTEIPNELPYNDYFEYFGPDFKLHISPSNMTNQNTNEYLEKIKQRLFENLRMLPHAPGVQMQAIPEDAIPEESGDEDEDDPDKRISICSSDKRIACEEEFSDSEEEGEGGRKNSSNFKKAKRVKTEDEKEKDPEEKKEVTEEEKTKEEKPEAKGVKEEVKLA
Method: (§3) SAHA served as the assay’s positive control. The HeLa nuclear extract was used as a source of HDAC activity. The trypsinized HeLa cells were tallied, put into 96-well microtiter plates, and nurtured. Samples and the standard were placed in wells at a concentration of 100 µL. The culture environment was maintained as per the procedure. 3,3′,5,5′-tetramethylbenzidine (TMB) was included for visualization. Finally, 50 µL of halt solution was smeared. The samples and different SAHA concentrations (0.01, 0.1, 1, 10 μM) were introduced to the appropriate well and left for 72 h. BioTek Epoch (Winooski, VT, USA) microplate reader was used to quantify optical density at 450 nm. The Graph Pad Prism 5 helped to determine the IC50 values.

HDAC6 = target: T2, HDAC6 (Homo sapiens, UniProt Q9UBN7); test: HDAC inhibition assay (color de lys ELISA kit), HDAC6; format: biochemical; settings: HeLa nuclear extract as source of HDAC activity
T2 construct: The HeLa nuclear extract was used as a source of HDAC activity; host or cells: HeLa (nuclear extract / cells)
T2 sequence (Q9UBN7 1-1215): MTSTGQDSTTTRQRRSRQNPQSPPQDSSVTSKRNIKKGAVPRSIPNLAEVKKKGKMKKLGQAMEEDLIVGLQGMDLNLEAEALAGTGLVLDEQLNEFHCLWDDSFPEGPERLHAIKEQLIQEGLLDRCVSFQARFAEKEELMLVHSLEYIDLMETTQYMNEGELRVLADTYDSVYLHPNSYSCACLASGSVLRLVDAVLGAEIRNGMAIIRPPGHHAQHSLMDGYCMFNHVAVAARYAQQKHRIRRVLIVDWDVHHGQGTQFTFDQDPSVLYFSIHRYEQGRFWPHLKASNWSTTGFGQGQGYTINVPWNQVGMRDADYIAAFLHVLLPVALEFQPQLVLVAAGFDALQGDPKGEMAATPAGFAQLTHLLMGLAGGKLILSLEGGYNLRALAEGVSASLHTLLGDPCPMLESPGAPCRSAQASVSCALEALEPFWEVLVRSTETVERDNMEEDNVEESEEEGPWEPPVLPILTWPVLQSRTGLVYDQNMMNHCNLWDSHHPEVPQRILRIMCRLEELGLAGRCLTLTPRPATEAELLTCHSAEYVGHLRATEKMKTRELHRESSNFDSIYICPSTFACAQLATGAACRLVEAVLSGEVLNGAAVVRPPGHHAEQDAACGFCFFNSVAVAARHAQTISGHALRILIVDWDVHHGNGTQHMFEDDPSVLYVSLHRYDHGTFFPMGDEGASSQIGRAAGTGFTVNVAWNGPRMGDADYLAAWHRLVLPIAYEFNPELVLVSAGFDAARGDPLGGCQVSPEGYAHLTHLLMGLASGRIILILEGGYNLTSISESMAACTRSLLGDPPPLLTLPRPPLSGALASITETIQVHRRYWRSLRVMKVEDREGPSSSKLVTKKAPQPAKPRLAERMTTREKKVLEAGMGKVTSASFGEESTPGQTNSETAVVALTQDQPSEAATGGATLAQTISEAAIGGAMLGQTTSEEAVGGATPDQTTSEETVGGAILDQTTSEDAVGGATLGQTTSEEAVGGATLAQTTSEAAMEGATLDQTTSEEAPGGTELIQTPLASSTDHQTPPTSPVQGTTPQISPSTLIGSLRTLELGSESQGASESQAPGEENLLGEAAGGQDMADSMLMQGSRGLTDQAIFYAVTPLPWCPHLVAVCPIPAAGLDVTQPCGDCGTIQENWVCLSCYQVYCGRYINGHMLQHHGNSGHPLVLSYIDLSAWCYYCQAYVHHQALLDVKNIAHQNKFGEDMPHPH
Method: as §3

[3] = Homo sapiens, MCF7, MCF-7, 48 h, read-out: GI50
[4] = Homo sapiens, A549, A-549, 48 h, read-out: GI50

| SMILES | GI50 [1, 3] [µg/mL] | GI50 [2, 4] [µg/mL] | IC50 (HDAC1) [µM] | IC50 (HDAC6) [µM] | GI50 ([1]; MCF-7, 48 h) [µg/mL] | GI50 ([2]; A-549, 48 h) [µg/mL] |
| --- | --- | --- | --- | --- | --- | --- |
| O=C(CCc1ccc(-n2ncc(-c3ccc(O)cc3)n2)cc1)NO [VI(n), N-Hydroxy-3-(4-(4-(4-hydroxyphenyl)-2H-1,2,3-triazol-2-yl)phenyl)propanamide] | > 80 | > 80 | – | – | – | – |
| O=C(CCC(=O)c1ccc(-n2ncc(-c3ccc(Cl)cc3)n2)cc1)NO [VI(c), 4-(4-(4-(4-Chlorophenyl)-2H-1,2,3-triazol-2-yl)phenyl)-N-hydroxy-4-oxobutanamide] | < 10 | < 10 | 21.2 | 31.7 | – | – |
| O=C(CCCCCn1ncc(-c2ccc(Cl)cc2)n1)NO [VI(h), 6-(4-(4-Chlorophenyl)-2H-1,2,3-triazol-2-yl)-N-hydroxyhexanamide] | 50 (≈ 162 µM) | > 80 | – | – | – | – |
| COc1ccc(-c2cnn(-c3ccc(CCC(=O)NO)cc3)n2)cc1 [VI(o), N-Hydroxy-3-(4-(4-(4-methoxyphenyl)-2H-1,2,3-triazol-2-Yl)phenyl)propanamide] | > 80 | 62 (≈ 183 µM) | – | – | – | – |
| Cc1ccc(-c2cnn(CCCCCC(=O)NO)n2)cc1 [VI(k), N-Hydroxy-6-(4-(p-tolyl)-2H-1,2,3-triazol-2-Yl)hexanamide] | 14.9 (≈ 51.5 µM) | > 80 | – | – | – | – |
| COc1ccc(-c2cnn(-c3ccc(C(=O)CCC(=O)NO)cc3)n2)cc1OC [VI(g), 4-(4-(4-(3,4-Dimethoxyphenyl)-2H-1,2,3-triazol-2-yl)phenyl)-N-hydroxy-4-oxobutanamide] | 15 (≈ 37.8 µM) | 53 (≈ 134 µM) | – | – | – | – |
| COc1cccc2c1C(=O)c1c(O)c3c(c(O)c1C2=O)C[C@@](O)(C(=O)CO)C[C@@H]3O[C@H]1C[C@H](N)[C@H](O)[C@H](C)O1 [ADR, reference compound] | – | – | – | – | <10 | <10 |
| O=C(CCC(=O)c1ccc(-n2ncc(-c3ccc([N+](=O)[O-])cc3)n2)cc1)NO [VI(b), N-Hydroxy-4-(4-(4-(4-nitrophenyl)-2H-1,2,3-triazol-2-yl)phenyl)-4-oxobutanamide] | < 10 | < 10 | 21.1 | 24.2 | – | – |
| Cc1ccc(-c2cnn(-c3ccc(C(=O)CCC(=O)NO)cc3)n2)cc1 [VI(d), N-Hydroxy-4-oxo-4-(4-(4-(p-tolyl)-2H-1,2,3-triazol-2-yl)phenyl)butanamide] | 12.9 (≈ 36.8 µM) | 14.7 (≈ 41.9 µM) | – | – | – | – |
| Cc1ccc(-c2cnn(-c3ccc(CCC(=O)NO)cc3)n2)cc1 [VI(m), N-Hydroxy-3-(4-(4-(p-tolyl)-2H-1,2,3-triazol-2-yl)phenyl)propanamide] | > 80 | > 80 | – | – | – | – |
| O=C(CCC(=O)c1ccc(-n2ncc(-c3ccc(O)cc3)n2)cc1)NO [VI(e), N-Hydroxy-4-(4-(4-(4-hydroxyphenyl)-2H-1,2,3-triazol-2-yl)phenyl)-4-oxobutanamide] | < 10 | < 10 | 27.2 | 18.6 | – | – |
| COc1ccc(-c2cnn(-c3ccc(C(=O)CCC(=O)NO)cc3)n2)cc1 [VI(a), N-Hydroxy-4-(4-(4-(4-methoxyphenyl)-2H-1,2,3-triazol-2-yl)phenyl)-4-oxobutanamide] | 15.1 (≈ 41.3 µM) | 19.4 (≈ 52.8 µM) | – | – | – | – |
| O=C(CCc1ccc(-n2ncc(-c3ccc(Cl)cc3)n2)cc1)NO [VI(l), 3-(4-(4-(4-Chlorophenyl)-2H-1,2,3-triazol-2-Yl)phenyl)-N-hydroxypropanamide] | > 80 | > 80 | – | – | – | – |
| O=C(CCCCCn1ncc(-c2ccc(O)cc2)n1)NO [VI(j), N-Hydroxy-6-(4-(4-hydroxyphenyl)-2H-1,2,3-triazol-2-yl)hexanamide] | 17 (≈ 58.6 µM) | 50 (≈ 172 µM) | – | – | – | – |
| O=C(CCC(=O)c1ccc(-n2ncc(-c3ccc(F)cc3)n2)cc1)NO [VI(f), 4-(4-(4-(4-Fluorophenyl)-2H-1,2,3-triazol-2-yl)phenyl)-N-hydroxy-4-oxobutanamide] | < 10 | 26.9 (≈ 76 µM) | – | – | – | – |
